{"source": "patent US20210369737A1", "about": "“PROSTATE FUNCTION SUPPORT FORMULA” (Innovus Pharmaceuticals, Inc., priority 2017, published 2021)", "origin": "cited, not measured here", "key": {"prostate cancer cell": {"tested_on": "prostate cancer cell", "settings": "in vitro"}, "prostate tumors": {"tested_on": "prostate tumors", "settings": "TRAMP mice"}, "prostate cancer": {"tested_on": "prostate cancer", "settings": "in vitro and in vivo"}, "prostate cancer cells [1]": {"tested_on": "prostate cancer cells"}, "PSA": {"tested_on": "PSA", "settings": "clinical trials"}, "[2]": {"settings": "in vivo"}, "prostate cancer cells [3]": {"tested_on": "prostate cancer cells", "settings": "in vitro"}, "[4]": {"tested_on": "human prostate tumor in vivo xenografts"}, "[5]": {"tested_on": "prostate cancer and BPH cells", "settings": "in vitro"}, "androgen receptor": {"target": "T1, androgen receptor (Homo sapiens, UniProt P10275)", "T1 sequence (P10275 1-920)": "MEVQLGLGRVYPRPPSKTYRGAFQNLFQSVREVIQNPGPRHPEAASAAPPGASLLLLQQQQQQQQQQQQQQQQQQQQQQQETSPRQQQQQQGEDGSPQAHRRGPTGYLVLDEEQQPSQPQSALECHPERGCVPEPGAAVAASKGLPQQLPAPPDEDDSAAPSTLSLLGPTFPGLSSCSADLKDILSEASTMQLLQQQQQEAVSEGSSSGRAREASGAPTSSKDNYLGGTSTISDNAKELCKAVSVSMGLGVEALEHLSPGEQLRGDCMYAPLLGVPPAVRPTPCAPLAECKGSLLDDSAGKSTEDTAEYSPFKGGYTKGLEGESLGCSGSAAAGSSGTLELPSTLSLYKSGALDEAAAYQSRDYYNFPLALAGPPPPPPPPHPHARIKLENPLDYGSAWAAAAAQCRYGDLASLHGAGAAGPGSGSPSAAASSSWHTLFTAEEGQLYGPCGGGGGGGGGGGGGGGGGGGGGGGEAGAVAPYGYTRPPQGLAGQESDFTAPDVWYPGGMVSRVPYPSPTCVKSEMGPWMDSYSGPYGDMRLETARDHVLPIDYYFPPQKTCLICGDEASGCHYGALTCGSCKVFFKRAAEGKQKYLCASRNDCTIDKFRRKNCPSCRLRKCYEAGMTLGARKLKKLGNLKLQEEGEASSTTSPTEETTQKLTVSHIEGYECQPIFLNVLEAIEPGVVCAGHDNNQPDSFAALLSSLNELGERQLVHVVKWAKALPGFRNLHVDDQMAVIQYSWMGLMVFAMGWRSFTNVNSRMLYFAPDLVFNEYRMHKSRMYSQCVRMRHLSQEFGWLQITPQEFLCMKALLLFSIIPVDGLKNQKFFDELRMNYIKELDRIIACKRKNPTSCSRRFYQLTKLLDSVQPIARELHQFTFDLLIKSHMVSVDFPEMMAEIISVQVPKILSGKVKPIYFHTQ", "settings": "in vitro"}}, "data": [{"molecule": "O=C(O[C@@H]1Cc2c(O)cc(O)cc2O[C@@H]1c1cc(O)c(O)c(O)c1)c1cc(O)c(O)c(O)c1", "note": "[EGCG]", "values": [{"measurement": "androgen antagonism", "setting": "prostate cancer cell", "value": "acts as an anti-androgen antagonist"}, {"measurement": "prostate cancer cell proliferation and PSA production", "setting": "prostate cancer cell", "value": "suppresses prostate cancer cell proliferation and production of prostate-specific antigen (PSA)"}, {"measurement": "tumor size and development of prostate tumors", "setting": "prostate tumors", "value": "reduces tumor size and delays development of prostate tumors"}]}, {"molecule": "Vitamin E", "values": [{"measurement": "prostate cancer risk, tumor progression, apoptosis", "setting": "prostate cancer", "value": "reduce risk of prostate cancer, suppress tumor progression and cell apoptosis"}]}, {"molecule": "CC(C)=CCC/C(C)=C/C=C/C(C)=C/C=C/C(C)=C/C=C/C=C(C)/C=C/C=C(C)/C=C/C=C(\\C)CCC=C(C)C", "note": "[Lycopene]", "values": [{"measurement": "antitumorigenic effect", "setting": "prostate cancer cells [1]; animal studies", "value": "antitumorigenic effect"}, {"measurement": "antioxidant response, proliferation, apoptosis, metastatic capacity of prostate cells", "setting": "prostate cancer cells [1]; in vitro and in vivo", "value": "enhance the antioxidant response of prostate cells, inhibit proliferation, demonstrate chemopreventive effect induce apoptosis and decrease the metastatic capacity of prostate cancer cells"}, {"measurement": "PSA levels", "setting": "PSA", "value": "reduction of PSA levels"}, {"measurement": "safety status", "setting": "[2]", "value": "generally recognized as safe (GRAS)"}]}, {"molecule": "CC[C@H](CC[C@@H](C)[C@H]1CC[C@H]2[C@@H]3CC=C4C[C@@H](O)CC[C@]4(C)[C@H]3CC[C@]12C)C(C)C", "note": "[Beta-sitosterols, Beta-Sitosterol]", "values": [{"measurement": "levels of DHT", "setting": "BPH; clinical", "value": "decrease levels of DHT"}, {"measurement": "urinary flow", "setting": "BPH; clinical", "value": "significantly improve urinary flow"}, {"measurement": "maintenance of improvements in follow-up", "setting": "BPH; follow-up study, observation", "value": 18, "unit": "months"}, {"measurement": "symptom scores", "setting": "BPH; versus placebo, after three and six months of treatment", "value": "significant decrease in symptom scores"}]}, {"molecule": "O=c1c(O)c(-c2ccc(O)c(O)c2)oc2cc(O)cc(O)c12", "note": "[Quercetin, 2-(3,4-dihydroxyphenyl)-3,5,7-trihydroxy-4H-chromen-4-one]", "values": [{"measurement": "symptoms in CP/CPPS", "setting": "CP/CPPS; clinical", "value": "symptomatic improvement"}, {"measurement": "IPSS", "setting": "CP/CPPS; randomized, double-blind, placebo controlled clinical trial", "value": "decrease in IPSS"}, {"measurement": "apoptosis and caspase activation", "setting": "prostate cancer cells [3]", "value": "promoted prostate cancer cells apoptosis and caspase activation"}, {"measurement": "prostate cancer cell proliferation", "setting": "prostate cancer cells [3]", "value": "inhibits prostate cancer cell proliferation"}, {"measurement": "prostate weight and anti-tumor activity", "setting": "[4]; in vivo, in combination with finasteride", "value": "effective in vivo in combination with finasteride to reduce prostate weight and anti-tumor activity"}, {"measurement": "effect on human prostate tumor xenografts", "setting": "[4]; mice", "value": "has an effect on human prostate tumor in vivo xenografts"}]}, {"molecule": "[Zn]", "note": "[Zinc]", "values": [{"measurement": "apoptosis and antiproliferative effects", "setting": "[5]", "value": "induces apoptosis and antiproliferative effects"}]}, {"molecule": "[Se]", "note": "[Selenium]", "values": [{"measurement": "levels of p53", "setting": "androgen receptor", "value": "increase levels of p53"}, {"measurement": "activity of the androgen receptor", "setting": "androgen receptor; prostate cancer cells", "value": "decrease the activity of the androgen receptor"}, {"measurement": "prostate cancer risk, tumor progression, apoptosis", "setting": "prostate cancer", "value": "reduce risk of prostate cancer, suppress tumor progression and cell apoptosis"}]}]}
